Source: article PMC10989504 (RSC Chemical Biology, 2024)

T1: papain (Carica papaya, UniProt P00784)
T1 sequence (P00784 134-345): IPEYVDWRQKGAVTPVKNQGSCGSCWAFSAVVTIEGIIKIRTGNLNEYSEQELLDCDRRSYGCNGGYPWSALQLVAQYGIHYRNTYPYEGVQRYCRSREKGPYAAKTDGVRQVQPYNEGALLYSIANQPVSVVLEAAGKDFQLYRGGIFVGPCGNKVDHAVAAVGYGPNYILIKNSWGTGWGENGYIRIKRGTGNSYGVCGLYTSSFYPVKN


Assays:
papain = molecular target: T1, papain; experiment: Papain inhibition; format: biochemical; conditions: TD19 at 10 μM; E64 and IAA positive controls
AML and GBM cells = experiment: Viability of AML and GBM cells, control compound; conditions: 72 h, MTT/CCK8, in words
FTO = FTO (Homo sapiens, UniProt Q9C0B1); experiment: PAGE-based demethylation assay, FTO; format: biochemical; conditions: compound at 50 μM
ALKBH5 [1] = molecular target: T2, ALKBH5 (Homo sapiens, UniProt Q6P6C2); experiment: PAGE-based demethylation assay, ALKBH5; format: biochemical; conditions: compound at 50 μM
ALKBH5 [2] = molecular target: T2, ALKBH5; experiment: FRET-based m6A detection assay, ALKBH5; conditions: preincubation for various durations, in words
ALKBH5 C100SC267S = ALKBH5 C100SC267S (human, UniProt Q6P6C2 66-292, C100S;C267S); experiment: pull-down
Chain of ALKBH5 C100SC267S (Q6P6C2 66-292 C100S/C267S): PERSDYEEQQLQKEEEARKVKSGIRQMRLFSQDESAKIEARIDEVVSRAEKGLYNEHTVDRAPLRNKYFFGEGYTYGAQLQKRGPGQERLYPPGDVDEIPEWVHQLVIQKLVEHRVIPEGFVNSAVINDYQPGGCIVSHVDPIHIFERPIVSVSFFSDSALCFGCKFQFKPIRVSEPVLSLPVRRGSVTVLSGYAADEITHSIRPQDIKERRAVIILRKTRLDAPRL

T2 sequence (Q6P6C2 66-292 limits assumed): as the sequence (Q6P6C2 66-292 C100S/C267S) above, with S35C, S202C counted along it
Chain of FTO (Q9C0B1 32-505 limits assumed): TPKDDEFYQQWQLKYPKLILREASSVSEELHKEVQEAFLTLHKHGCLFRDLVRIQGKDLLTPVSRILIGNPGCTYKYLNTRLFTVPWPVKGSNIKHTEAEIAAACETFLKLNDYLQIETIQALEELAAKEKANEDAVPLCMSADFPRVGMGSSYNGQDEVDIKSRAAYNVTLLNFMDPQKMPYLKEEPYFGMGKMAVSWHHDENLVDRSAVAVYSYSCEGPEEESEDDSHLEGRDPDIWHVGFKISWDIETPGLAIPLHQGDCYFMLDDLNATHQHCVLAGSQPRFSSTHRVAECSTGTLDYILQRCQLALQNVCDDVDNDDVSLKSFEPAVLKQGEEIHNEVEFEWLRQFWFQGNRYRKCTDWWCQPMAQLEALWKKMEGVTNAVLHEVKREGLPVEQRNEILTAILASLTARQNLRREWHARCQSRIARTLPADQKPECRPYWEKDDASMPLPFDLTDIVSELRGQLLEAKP

| Molecule | Inhibition of papain (papain) | Inhibition of ALKBH5 demethylation of dm6A-modified substrate (ALKBH5 [1]) | further results |
| --- | --- | --- | --- |
| CC(C)C[C@H](NC(=O)[C@H]1O[C@@H]1C(=O)O)C(=O)NCCCCN=C(N)N (relative stereo) [E64, L-trans-epoxysuccinyl-leucylamido(4-guanidino)butane] | significant inhibition |  |  |
| Cc1noc(C)c1-c1cc(Cl)c(Nc2ccccc2C(=O)NO)c(Cl)c1 [FB23-2] |  |  | Antiproliferative activity compared with TD19 (AML and GBM cells): displayed better activities than TD19 |
| NC(=O)CI [IAA, iodoacetamide] | significant inhibition | did not inhibit | Inhibition of FTO demethylation of dm6A-modified substrate (FTO): did not inhibit |
| CCN1C(=O)C=CC1=O [NEM, N-ethylmaleimide] |  | inhibited the demethylation |  |
| O=C(O)c1cc(O)c2c(c1)C(=O)c1cccc(O)c1C2=O [rhein] |  |  | Time dependence and reversibility of ALKBH5 inhibition (ALKBH5 [2]): time-independent and reversible |
| TTTTTTGGACT (ssDNA, N6-methyl-deoxyadenosine at position 9) [5'-biotin-TEG dm6A DNA] |  |  | binding result (ALKBH5 C100SC267S): binds |
